Measured values: patent US8575107B2, “Clusterin derived peptide” (Compugen Ltd., priority 2008, dated 2013)

Key:
[1] = test system: lung carcinoma cell line A549; experiment: MTT assay, CGEN-CL1 and/or paclitaxel on A549 cells; format: cell-based, human; conditions: single agent
Description: (§1) 20 μl of MTT (3-(4,5-Dimethyl-2-thiazolyl)-2,5-diphenyl-2H-tetrazolium bromide) solution (Sigma Cat#M5655, lot#085k5322, 1 gr was dissolved in 200 ml H2O and filtered, giving a final concentration of 5 mg/ml) was added to each well and incubated for 4 hours at 37° C. after which the medium was vacuumed and 100 μl of DMSO was added to each well. Absorbance was measured in an ELISA reader at 492 nm.
(§2) A549, PC3 and MCF7 cells were seeded at 6000, 8000 and 10,000 cells per well respectively in 150 μl of media (DMEM medium+5% FBS) in 96 well plates.
(§3) Paclitaxel (Sigma T7402, Lot. 036k1217, Mw 853.9, 5 mg dissolved in 585 μl DMSO to a stock concentration of 10 mM, stored at −20° C.) and/or CGEN-CL1 (1 mg dissolved in 250 μl of sodium bi-carbonate to a stock concentration of 4 mg/ml) were added to the wells in 25 μl of medium (final volume of 200 μl) as detailed in Table 3. The relative growth was normalized to controls where neither paclitaxel nor CGEN-CL1 was added to wells.
(§4) An MTT assay was performed as described above in Example 2.

[2] = test system: MCF-7 breast cancer cell lines; experiment: MTT assay, CGEN-CL1 and/or paclitaxel on MCF-7 cells; format: cell-based
Description: as §1, §2, §3, §4

Structure (SMILES): CC(=O)O[C@H]1C(=O)[C@@]2(C)[C@H]([C@H](OC(=O)c3ccccc3)[C@]3(O)C[C@H](OC(=O)[C@H](O)[C@@H](NC(=O)c4ccccc4)c4ccccc4)C(C)=C1C3(C)C)[C@]1(OC(C)=O)CO[C@@H]1C[C@@H]2O [Paclitaxel, reference compound]
- maximal effect (inhibition) alone [1]: 50%
- Relative Growth ([2]; Paclitaxel 2.25 nM alone): 0.88
- Relative Growth ([2]; Paclitaxel 30.00 nM alone): 0.49
